One experiment deals with osteoblast cells. Nature of the experiment: Quantification of mineralization in osteoblasts (Alizarin red, acetic acid extraction). The class given is cell-based, Balb/c mouse. Particulars: osteoblasts cultured 7 days; vs vehicle control; FIG. 13. The procedure: (§1) Neonatal mouse calvarial cell cultures are prepared as described previously (Endocrinology 139:4743) using slight modification. Briefly, for primary osteoblast cell cultures, frontal and parietal bones from Balb/c mouse neonates (1-3 day old) are digested in 0.1% collagenase/0.1% dispase in α-MEM to obtain 5 sequential digests. The second through fifth digests are combined and grown to confluence at 37° C. and 5% CO2 in air in α-MEM, supplemented with 10% fetal bovine serum (FBS), 2 mM glutamine, 100 U/ml penicillin-streptomycin, Non-essential amino acid solution and sodium pyruvate. The effect of test agents is analysed using the following tests:
For quantification of mineralization which is measured with increased deposition of nascent calcium in osteoblast cells, cells were cultured in the presence of test compounds for 7 days and stained with Alizarin red. Alizarin red was extracted with acetic acid and the intensity of stain, which is directly proportion to the extent of mineralisation, is read at 405 nm.

Experiment [1] relates to Cladosporium cladosporioides. As to conditions: Bandara et al. 1989/1990; cited from earlier work.
Another experiment concerns primary osteoblasts. Kind of experiment: MTT assay for cell proliferation, primary osteoblast cell culture. The class given is cell-based, Balb/c mouse. Particulars: 24 h; for Osteoblast cell proliferation (MTT assay): Vehicle 0.60 ± 0.06, Mean±SEM. As for the experimental part:
as §1
MTT assay is a common assay used for assessing cell proliferation where tetrazolium salt is reduced to formazone crystals by the mitochondrial dehydrogenase enzyme, which are then dissolved in DMSO. More the number of metabolically active cells more will be the formazone crystals formed. Briefly, osteoblast cells are maintained in α-MEM medium supplemented with 10% FCS and 1% antibiotic solution in 96 well plate. When the cells attain 40% confluency, they are treated in presence or absence of test agents in 2% FCS supplemented media for 24 h. Twenty-four hours thereafter, MTT salt is added to the cells. After 4 h, the formazone crystals formed are dissolved in DMSO and readings taken at wavelength of 570 nm.
This assay is based on the ability of viable cells to reduce tetrazolium salt to form formazone crystals by mitochondrial dehydrogenase enzyme. In MTT assay, osteoblasts are maintained in α-MEM medium supplemented with 10% FCS and 1% antibiotic solution in 96 well plate. When the cells attain 40% confluency, they are treated in presence or absence of test agents in 2% FCS supplemented media for 24 h. Twenty-four hours thereafter, MTT salt is added to the cells. After 4 h, the formazone crystals formed due to reduction of tetrazolium salt by mitochondrial dehydrogenase enzyme are dissolved in DMSO and readings taken at wavelength of 570 nm. All the five pure compounds nos.
A general note: Tetrazolium dyes change colour on reduction, which living cells bring about.

Experiment [2] has as its system osteoblasts. Nature of the experiment: Osteogenic activity of isolated compounds based on alkaline phosphatase expression, MTT and mineralisation in vitro. The format is cell-based. From the text:
K051, K052, K054, K080, K082 (isolated from n-butanol soluble fraction) and K095 (isolated from chloroform soluble fraction) (FIGS. 11-15; Tables 10-11).

Experiment [3] has as its system osteoblasts cultured on sterile bovine bone slices. Nature of the experiment: Mineralisation by osteoblasts cultured on bovine bone slices, Alizarin red staining. The format is cell-based, Balb/c mouse. Particulars: 15 days, FIGS. 14 and 15. As for the experimental part: as §1
(§2) Cells are seeded onto sterile bovine bone slices in 96-well plate and treated with the culture medium containing α-MEM, supplemented with 10% fetal bovine serum, 2 mM glutamine, 100 U/ml penicillin-streptomycin, non-essential amino acid solution, sodium pyruvate, 10 mM P-glycerophosphate and 50 μg/ml ascorbic acid. Culture medium is changed every alternate day. At termination of the culture, cells are washed twice with PBS, fixed in cold 70% ethanol for 1 h and washed once with water and stained with 40 mM Alizarin red (pH 4.7) for 30 min and then washed in PBS to remove excess staining.
as §2, with “In case of osteoblasts” for “Cells are”, “slices, the cells are cultured” for “slices”, “in A-MEM” for “and treated with the culture medium containing α-MEM,”, “p-glycerophosphate” for “P-glycerophosphate”, “acid in the absence or presence of test compounds or their mixtures.” for “acid.”, “culture after 15 days,” for “culture,”

In experiment [4] the test system is osteoblasts. Kind of experiment: Quantification of alkaline phosphatase activity in osteoblasts. The class given is cell-based, Balb/c mouse. On the set-up: alkaline phosphatase activity: unit not given here. As to conditions: 48 h; for alkaline phosphatase activity: Control 1.87 ± 0.20, Mean±SEM. As for the experimental part: as §1
p-Nitrophenol phosphate is a colorless substrate which is hydrolysed to colored p-nitrophenol by alkaline phosphatase enzyme. Rate of hydrolysis of p-nitrophenol phosphate is proportional to enzyme present in sample. […] Findings reveal that all the five pure compounds nos.

For experiment [5], the system named is Ishikawa (human uterine glandular epithelial carcinoma) cell line. Nature of the experiment: MTT proliferation assay in Ishikawa cell line. Particulars: 10 nM and 1 μM; Ishikawa cells; FIG. 2. The class given is cell-based.
Experiment [6] deals with MCF-7 (human cancer breast) cell line. Nature of the experiment: MTT proliferation assay in MCF-7 cell line. As to conditions: 10 nM and 1 μM; MCF-7 cells; FIG. 2. The format is cell-based.
Experiment [7] has as its system PTH-induced resorption of ^45Ca from chick fetal bones in culture. Kind of experiment: Chick fetal bone culture assay, bone antiresorbing activity. The class given is cell-based. Particulars: 100 μM; vehicle 1.03; T/C close to unity = no antiresorbing activity. As for the experimental part: A slight modification of the method of Raisz (Nature 197: 1015-1016, 1963) was employed. Femur bones are isolated from chick embryos on day 11 post-ovulation and cleared of adhering connective tissue by carefully rotating each bone on dry Whatman (I) filter paper under stereomicroscope. Each femur bone is then placed in a drop of PBS before culturing in BGJb medium (pH 7.3) supplemented with penicillin (0.075 mg/ml), streptomycin (0.05 mg/ml), HEPES (2.382 mg/ml) and BSA (1 mg/ml), transferred to BGJb culture medium containing ^45CaCl2 (0.5 μCi/300 μl culture medium) and incubated for 2 h at 37° C. under 5% CO2 in air. Labeled femur bones are then washed with BGJb medium for 24 h at 37° C. under 5% CO2 in air. An aliquot of the medium was withdrawn for the measurement of ^45Ca released into the medium from bone during the first 24 h. […] Radioactivity due to ^45Ca in the spent medium collected at 24, 48 and 96 h of culture and HCl extract at 96 h of culture is quantified by Liquid Scintillation Spectrophotometer in 10 ml of the scintillation fluid (ACS II scintillation cocktail, Amersham Biosciences, UK). […] Bone anti-resorbing activity is expressed as percentage of ^45Ca released into the culture medium and the effect of the agent of invention as percent of the corresponding contra-lateral control or T/C ratio as shown below. […]

A further experiment deals with rat fetal bones. Nature of the experiment: Total alkaline phosphatase activity in cultured rat fetal bones. The format is cell-based. Set-up: dose or concentration left out as unconfirmed. As to conditions: rat fetal bones cultured for 48 h. As for the experimental part:
[…] The homogenate is centrifuged at 5000 rpm for 10 min at 4° C. The supernatant is used as the enzyme solution. The activity of alkaline phosphatase is measured using ALP kit (Roche, Germany) and p-nitrophenol phosphate as substrate.

As for `COc1ccc2c(c1)OC1c3ccc(O)cc3OCC21` (stereo not shown) [Compound K095, 3-hydroxy-9-methoxypterocarpans], the “mineralisation quantified by alizarin extraction method” value in the experiment on osteoblast cells is listed as “enhanced mineralisation”. The “activity against Cladosporium cladosporioides” value in experiment [1] is reported as “active”. Further, the “Osteoblast cell proliferation (MTT assay)” value turned out to be 1.28 ± 0.08 in the experiment on primary osteoblasts (10^−5 M); 1.47 ± 0.14 with primary osteoblasts (10^−6 M); 1.35 ± 0.16 in the experiment on primary osteoblasts (10^−7 M); 1.24 ± 0.18 in the experiment with primary osteoblasts (10^−8 M); 1.14 ± 0.19 with primary osteoblasts (10^−9 M); 1.38 ± 0.18 in the experiment with primary osteoblasts (10^−10 M). Moreover, in the experiment on primary osteoblasts (10^−11 M), the “Osteoblast cell proliferation (MTT assay)” value was found to be 1.05 ± 0.03. Besides, the “osteoblast cell proliferation vs vehicle control” value with primary osteoblasts (10^−11 M to 10^−5 M) is listed as “enhanced osteoblast cell proliferation”. For the same molecule, the osteogenic activity result in the experiment on osteoblasts [2] is “promising osteogenic activity”. The “relative potency in mineralisation on bovine bone slices” value in [3] was “most potent”. Further, the “intensity of alizarin red staining (rate of new bone formation)” value in experiment [3] (osteoblasts on bovine bone slices, alone or in combination) is on record as “increased intensity of alizarin red staining”. In addition, the alkaline phosphatase activity was 3.28 ± 0.07 with osteoblasts [4] (10^−5 M); 3.42 ± 0.07 with osteoblasts [4] (10^−6 M); 3.50 ± 0.07 in the experiment on osteoblasts [4] (10^−7 M); 3.35 ± 0.10 in the experiment with osteoblasts [4] (10^−8 M); 3.54 ± 0.04 in the experiment on osteoblasts [4] (10^−9 M); 3.40 ± 0.07 with osteoblasts [4] (10^−10 M). For the same molecule, the alkaline phosphatase activity in the experiment on osteoblasts [4] (10^−11 M) is on record as 3.51 ± 0.01. The “expression of alkaline phosphatase vs vehicle control” value in the experiment with osteoblasts [4] (10^−11 M to 10^−5 M) is on record as “increased expression of alkaline phosphatase”.
Regarding `C[C@]12CC[C@@H]3c4ccc(O)cc4CC[C@H]3[C@@H]1CC[C@@H]2O` [Estradiol-17β], the proliferation result in experiment [5] and in [6] was “marked increase in proliferation” each time. In addition, in [7], the “T/C ratio (PTH-induced resorption of ^45Ca)” value is on record as 0.37.
Consider `O=C(c1ccc(OCCN2CCCCC2)cc1)c1c(-c2ccc(O)cc2)sc2cc(O)ccc12` [Raloxifene], for which the proliferation result in experiment [5] is on record as “increased proliferation was observed”; in [6], “increased proliferation was observed in only the Ishikawa cell line”.
Take `O=P([O-])([O-])OC(CO)CO.[Na+].[Na+]` [Sodium β-glycerophosphate]: the “Total alkaline phosphatase activity, percent increase (percent of vehicle control group)” value in the experiment on rat fetal bones and in the experiment with rat fetal bones (listed as sodium p-glycerophosphate) was 28% in each case.

These data come from patent US20090221690A1, “Pharmaceutical Composition for the Prevention/Treatment of Bone Disorders and a Process for the Preparation Thereof” (COUNCIL OF SCIENTIFIC AND INDUSTRIAL RESEARCH, priority 2006, published 2009).
